Measurements taken from ChEMBL document CHEMBL5442175, “EUbOPEN Chemogenomics Library - PDSP Secondary Binding” (2024).

What was measured:
[1] = target: Delta-type opioid receptor (Homo sapiens, UniProt P41143); assay: (§1) PDSP Secondary Binding target: OPRD1 - Compounds are tested at 10 uM concentration, plate are incubated at room temperature in the dark for 90 minutes. Reaction are stopped by vacuum filtration onto 0.3% polyethyleneimine soaked filter mats using Filtermate harvester. Scintillation cocktail is then melted onto microwave-dried filters on a hot plate and the radio activity is counted in Microbia counter.
Sequence of Delta-type opioid receptor (P41143 whole entry): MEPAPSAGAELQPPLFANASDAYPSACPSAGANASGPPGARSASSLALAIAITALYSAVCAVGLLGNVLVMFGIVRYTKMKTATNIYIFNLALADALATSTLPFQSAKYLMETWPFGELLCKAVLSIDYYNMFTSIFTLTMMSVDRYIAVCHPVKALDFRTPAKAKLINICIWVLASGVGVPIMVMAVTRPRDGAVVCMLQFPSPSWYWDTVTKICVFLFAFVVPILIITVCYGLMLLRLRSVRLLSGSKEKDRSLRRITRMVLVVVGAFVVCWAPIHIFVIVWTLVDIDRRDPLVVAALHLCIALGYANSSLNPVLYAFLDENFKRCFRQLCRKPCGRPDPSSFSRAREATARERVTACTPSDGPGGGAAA

Histamine H4 receptor = Histamine H4 receptor (Homo sapiens, UniProt Q9H3N8); assay: as §1, with “HRH4” for “OPRD1”

| Ki [1] | Ki (Histamine H4 receptor) | SMILES |
| --- | --- | --- |
| 399 nM |  | COC(=O)C1=C(C)NC(C)=C(C(=O)OCCCN2CCC(c3ccccc3)(c3ccccc3)CC2)[C@H]1c1cccc([N+](=O)[O-])c1 [NIGULDIPINE] |
|  | > 10000 nM | COc1cc(-n2cnc3cc(-c4ccc(Cl)cc4)sc3c2=O)ccc1OCCN1CCCC1 |
